Measurements published in EP4793274A1, “SALT AND CRYSTAL FORM OF KIF18A INHIBITOR COMPOUND, PREPARATION METHOD THEREFOR AND USE THEREOF” (Hubei Bio-Pharmaceutical Industrial Technological Institute …, priority 2023, dated 2025).
Counter-ions that a name gives are not always drawn. Like-named read-outs stand apart in the source and are kept apart here.

What was measured:
[1] = Solid state stability (XRPD and HPLC purity); type: physicochemical; settings: listed as Crystal form B of sulfate
Text: 167-171. […] Table C-3. Summary of solid state stability evaluation

[2] = Hygroscopicity by dynamic vapor sorption (DVS); type: physicochemical; settings: 25 °C/80% RH
Protocol: Dynamic vapor sorption (DVS) curves were acquired on a DVS IntrInsic from Surface Measurement Systems (SMS). The relative humidity at 25 °C was corrected with the deliquescence points of LiCl, Mg(NO3)2, and KCl. Table A-5. DVS test parameters
The percentage changes in mass of the samples when the humidity changed (0% RH to 95% RH) at a constant temperature of 25 °C were collected. 157-166.

[3] = physchem
Protocol: (§1) 100 mg of NaCl and 50 mg of Triton X-100 were weighed into a 50 mL volumetric flask and then completely dissolved by addition of purified water. 816 µL of 1 M hydrochloric acid was added, and the pH was adjusted to 1.8 with 1 M hydrochloric acid or 1 M NaOH solution. The mixed solution was brought to the volume by addition of purified water.
(§2) 340 mg of anhydrous NaH2PO4 and 620 mg of NaCl were weighed into a 100 mL volumetric flask, and then completely dissolved by addition of purified water. 55.44 µL of a 50% NaOH solution was then added, and the pH was adjusted to 6.5 with 1 M hydrochloric acid or 1 M NaOH solution. The mixed solution was brought to the volume by addition of purified water. Subsequently, 110 mg of SIF powder was weighed into a 50 mL volumetric flask and completely dissolved in the solution described above, and the mixed solution was brought to the volume.
(§3) Solids at a feeding concentration of 1 mg/mL (calculated based on free crystal form) were rotationally mixed with corresponding vehicles at room temperature. […] After sampling at each time point, the samples were centrifuged (at 10000 rpm) and filtered (through a 0.22 µm PTFE filter head), the HPLC concentrations and pH values of the filtrates were determined, and the centrifuged solid samples were subjected to XRPD analysis.

[4] = Dynamic solubility at 37 °C in H2O, SGF, FaSSIF and FeSSIF (HPLC concentration, pH of filtrate, XRPD of residual solid); type: physicochemical; settings: for solubility at 1 h / solubility at 2 h / solubility at 4 h / solubility at 24 h: feeding concentration 10 mg/mL, read-out: S: solubility; for FC: crystal form change: XRPD of residual solid; for FC: crystal form change / pH: listed as Crystal form B of sulfate; for pH: pH of filtrate
Protocol: 0.82 mL of glacial acetic acid and 1.18 g of NaCl were added to a 100 mL volumetric flask and completely dissolved by addition of purified water.
The solubility of each sample in H2O, SGF, FaSSIF, and FeSSIF was determined at different time points (1 h, 2 h, 4 h, and 24 h). […] 137-156. […] Table C-2. Summary of dynamic solubility test results at 37 °C

[5] = Solubility at room temperature in water, SGF and FaSSIF (HPLC concentration, pH of filtrate, XRPD of residual solid); settings: for pH: pH of filtrate, listed as Crystal form B of sulfate
Protocol: as §1, §2, §3

With `Cc1cc(-c2cnn(-c3ccc(NS(=O)(=O)CCO)cc3N3CCC4(CC3)CC4)c2)nc(N2CCC(F)(F)CC2)n1` [crystal form B of the sulfate] the “HPLC results Purity (area%)” value ([1]; 25 °C/60% RH/open, 1 week) was 97.97 area%, the “HPLC results Purity (area%)” value ([1]; 40 °C/75% RH/open, 1 week) was 97.98 area% and the “HPLC results Purity (area%)” value ([1]; 80 °C/sealed, 1 day) was 97.98 area%. For the same molecule, the “HPLC results Relative to starting (%)” value ([1]; 80 °C/sealed, 1 day) was 100.0%, the “HPLC results Purity (area%)” value ([1]; Starting) was 98.00 area% and the Crystal form ([1]; XRPD after 25 °C/60% RH/open, 1 week) was “Crystal form B of sulfate”. For the same molecule, the Crystal form ([1]; XRPD after 40 °C/75% RH/open, 1 week) was “Crystal form B of sulfate”, the Crystal form ([1]; XRPD after 80 °C/sealed, 1 day) was “Crystal form B of sulfate” and the vapor sorption values [2] was 0.445%. For the same molecule, the solubility at 2 h ([3]; fassif) was 61.6 µg/mL, the solubility at 24 h ([3]; fassif) was 33.8 µg/mL and the solubility at 2 h ([3]; sgf) was 54.5 µg/mL. For the same molecule, the solubility at 24 h ([3]; sgf) was 25 µg/mL, the solubility at 24 h ([3]; water) was 0.1 µg/mL and the solubility at 1 h ([4]; FaSSIF, 1 h) was 53.9 µg/mL. For the same molecule, the solubility at 2 h ([4]; FaSSIF, 2 h) was 36.4 µg/mL, the solubility at 4 h ([4]; FaSSIF, 4 h) was 28.1 µg/mL and the solubility at 24 h ([4]; FaSSIF, 24 h) was 13.6 µg/mL. For the same molecule, the solubility at 1 h ([4]; FeSSIF, 1 h) was 194 µg/mL, the solubility at 2 h ([4]; FeSSIF, 2 h) was 186 µg/mL and the solubility at 4 h ([4]; FeSSIF, 4 h) was 166 µg/mL. For the same molecule, the solubility at 24 h ([4]; FeSSIF, 24 h) was 79 µg/mL, the solubility at 1 h ([4]; SGF, 1 h) was 147 µg/mL and the solubility at 2 h ([4]; SGF, 2 h) was 82.4 µg/mL. For the same molecule, the solubility at 4 h ([4]; SGF, 4 h) was 18.1 µg/mL, the solubility at 24 h ([4]; SGF, 24 h) was 18.5 µg/mL and the “FC: crystal form change” value ([4]; FaSSIF, 1 h) was “Yes”. For the same molecule, the “FC: crystal form change” value ([4]; FaSSIF, 2 h) was “Yes”, the “FC: crystal form change” value ([4]; FaSSIF, 4 h) was “Yes” and the “FC: crystal form change” value ([4]; FaSSIF, 24 h) was “Yes”. For the same molecule, the “FC: crystal form change” value ([4]; FeSSIF, 1 h) was “Yes”, the “FC: crystal form change” value ([4]; FeSSIF, 2 h) was “Yes” and the “FC: crystal form change” value ([4]; FeSSIF, 4 h) was “Yes”. The “FC: crystal form change” value ([4]; FeSSIF, 24 h) was “Yes”, the “FC: crystal form change” value ([4]; H2O, 1 h) was “Yes” and the “FC: crystal form change” value ([4]; H2O, 2 h) was “Yes”. The “FC: crystal form change” value ([4]; H2O, 4 h) was “Yes”, the “FC: crystal form change” value ([4]; H2O, 24 h) was “Yes” and the “FC: crystal form change” value ([4]; SGF, 1 h) was “Yes”. For the same molecule, the “FC: crystal form change” value ([4]; SGF, 2 h) was “Yes”, the “FC: crystal form change” value ([4]; SGF, 4 h) was “Yes” and the “FC: crystal form change” value ([4]; SGF, 24 h) was “Yes”. For the same molecule, the pH ([4]; FaSSIF, 1 h) was 2.06, the pH ([4]; FaSSIF, 2 h) was 2.13 and the pH ([4]; FaSSIF, 4 h) was 2.07. The pH ([4]; FaSSIF, 24 h) was 2.08, the pH ([4]; FeSSIF, 1 h) was 4.50 and the pH ([4]; FeSSIF, 2 h) was 4.49. The pH ([4]; FeSSIF, 4 h) was 4.48, the pH ([4]; FeSSIF, 24 h) was 4.48 and the pH ([4]; H2O, 1 h) was 1.50. It also gave a pH ([4]; H2O, 24 h) of 1.56, a solubility at 1 h ([4]; water, H2O, 1 h) of 38.2 µg/mL and a solubility at 2 h ([4]; water, H2O, 2 h) of 18 µg/mL. For the same molecule, the solubility at 4 h ([4]; water, H2O, 4 h) was 11.1 µg/mL, the solubility at 24 h ([4]; water, H2O, 24 h) was 3 µg/mL and the “S: solubility” value ([5]; H2O, 2 h, feeding concentration 1 mg/mL) was “<LOQ”. For the same molecule, the pH ([5]; FaSSIF, 2 h) was 6.3, the pH ([5]; FaSSIF, 24 h) was 6.2 and the pH ([5]; H2O, 2 h) was 2.7. The pH ([5]; H2O, 24 h) was 2.5, the pH ([5]; SGF, 2 h) was 1.8 and the pH ([5]; SGF, 24 h) was 1.8.
